The results in this text go back to ChEMBL document CHEMBL1201862, “PubChem BioAssay data set” (2004).

Structures are written as SMILES.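 1) Cells in 96-well plates. 2) Compound, 48 h, 5 concentrations. 3) Linear interpolation between surrounding doses. 4) Unreached endpoint = highest concentration. Abbreviation: GI50, concentration required for 50% inhibition of growth.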 Calls of active or inactive are those of the source. Cut-off read from the data, not from the text of the source: active = GI50 up to about 1.1 µM and inactive = higher. Where only a bound is given, the exact number is not on record here.

Among the test systems are SW-620; IGROV-1; HOP-92; M19-MEL; CAKI-1; OVCAR-8; ACHN; M14; SK-MEL-5; HT-29; COLO 205; OVCAR-5; NCI-H23; HCT-15; MOLT-4; UACC-257; CCRF-CEM; HL-60.
Holding throughout (assay): NCI tumour cell line growth inhibition, 48 h

For `COC(=O)c1cc(OC(C)=O)c2c(OC)ccc(OC)c2c1`, the GI50 in the assay with SW-620, with IGROV-1, with HOP-92, in the assay with M19-MEL, with CAKI-1 and in the assay on OVCAR-8 was > 100 µM (inactive) each time. Besides, the GI50 in the assay on ACHN was > 100 µM (inactive); in the assay on M14, > 100 µM (inactive); in the assay with SK-MEL-5, > 100 µM (inactive); in the assay with HT-29, 47.9 µM (inactive); in the assay with COLO 205, > 100 µM (inactive); in the assay with OVCAR-5, > 100 µM (inactive). Further, the GI50 with NCI-H23 was > 100 µM (inactive); with HCT-15, 64.6 µM; with MOLT-4 it was 60.8 µM (inactive); with UACC-257, > 100 µM (inactive).

Turning to `CSc1nc2nc(C(O)C(O)C(O)CO)cnc2c(=O)[nH]1` (stereo not drawn), the GI50 with SW-620, in the assay with IGROV-1, in the assay with M19-MEL, in the assay with CCRF-CEM, with CAKI-1 and in the assay with OVCAR-8 was > 100 µM (inactive) throughout. Further, the GI50 with ACHN, in the assay on HL-60, in the assay on M14, in the assay with SK-MEL-5, in the assay on HT-29 and in the assay with COLO 205 was > 100 µM (inactive) each time. Also, the GI50 in the assay with OVCAR-5 was > 100 µM (inactive); with NCI-H23, > 100 µM (inactive); in the assay with HCT-15 it was greater than 100 µM; with MOLT-4, > 100 µM (inactive); with UACC-257 it was > 100 µM (inactive).

Turning to `COC(=O)/C(=N\NC(N)=S)C(C(=O)OC)C(=O)C(=O)Nc1ccc(C)cc1` (stereo not drawn), the GI50 in the assay on SW-620, in the assay on IGROV-1, with M19-MEL, in the assay on CCRF-CEM, in the assay with CAKI-1 and in the assay with OVCAR-8 was > 100 µM (inactive) each time. In addition, the GI50 in the assay on ACHN, with HL-60, with M14, with SK-MEL-5, in the assay on HT-29 and with COLO 205 was > 100 µM (inactive) throughout. The GI50 in the assay on OVCAR-5 was > 100 µM (inactive); with NCI-H23 it was > 100 µM (inactive); with HCT-15 it was greater than 100 µM; with MOLT-4, > 100 µM (inactive); in the assay on UACC-257 it was > 100 µM (inactive).

Take `Cc1[nH]nc2c1C(=O)C=C(N(CCO)c1ccccc1)C2=O`: the GI50 with SW-620, in the assay on IGROV-1, in the assay on HOP-92, with M19-MEL, with CCRF-CEM and with CAKI-1 was > 100 µM (inactive) in each case. Besides, the GI50 in the assay on OVCAR-8, with HL-60, in the assay with M14, in the assay with SK-MEL-5, with HT-29 and with COLO 205 was > 100 µM (inactive) each time. The GI50 in the assay with NCI-H23 is > 100 µM (inactive); in the assay with HCT-15, greater than 100 µM; in the assay on MOLT-4 it was > 100 µM (inactive); in the assay on UACC-257, > 100 µM (inactive).

For the compound `CC(=O)C1=CSC2[C@H](NC(=O)Cc3ccccc3)C(=O)N2C1C(=O)OC(c1ccccc1)c1ccccc1` (stereo partly drawn), the GI50 in the assay on SW-620 was 93.5 µM (inactive); with IGROV-1, > 100 µM (inactive); with HOP-92, 46.5 µM (inactive); in the assay with M19-MEL it was 96.4 µM (inactive); in the assay on CCRF-CEM, 23.1 µM (inactive); in the assay on CAKI-1, 59 µM (inactive). The GI50 with OVCAR-8 is > 100 µM (inactive); with HL-60, 35.2 µM (inactive); in the assay on M14 it was > 100 µM (inactive); with SK-MEL-5, 65.6 µM (inactive); in the assay with HT-29 it was > 100 µM (inactive); in the assay with COLO 205, > 100 µM (inactive). Also, the GI50 was 51.6 µM (inactive) with NCI-H23, 35.8 µM (inactive) in the assay on MOLT-4 and > 100 µM (inactive) in the assay with UACC-257.

Turning to `CC(Oc1ccc(OCC2CCCCC2)cc1)C(=O)NCCO` (stereo not drawn), the GI50 in the assay on IGROV-1, in the assay on M19-MEL, in the assay with CCRF-CEM, with OVCAR-8, with ACHN and in the assay with HL-60 was > 100 µM (inactive) each time. For the same compound, the GI50 with M14 is > 100 µM (inactive); in the assay on SK-MEL-5 it was > 100 µM (inactive); in the assay with HT-29, 99.3 µM (inactive); in the assay on NCI-H23, 15.7 µM (inactive); with HCT-15 it was greater than 100 µM; in the assay with MOLT-4, > 100 µM (inactive). In the assay with UACC-257, the GI50 was 49.7 µM (inactive).

In the case of `CCOC(=O)Cn1c(=O)n(C)c(=O)c2c1ncn2Cc1ccccc1`, the GI50 with SW-620, in the assay on IGROV-1, in the assay on HOP-92, in the assay on M19-MEL, with CCRF-CEM and with CAKI-1 was > 100 µM (inactive) throughout. The GI50 with OVCAR-8, in the assay with ACHN, in the assay on M14, in the assay on SK-MEL-5, with HT-29 and in the assay on COLO 205 was > 100 µM (inactive) throughout. The GI50 was > 100 µM (inactive) in the assay on OVCAR-5, > 100 µM (inactive) with NCI-H23, greater than 100 µM in the assay on HCT-15 and > 100 µM (inactive) in the assay with MOLT-4.

Regarding `CCOC(=O)C(/C(=N/NC(=O)OC)C(=O)Nc1ccc(C(C)=O)cc1)c1cnc2ccccc2n1` (stereo not drawn), the GI50 in the assay with SW-620, in the assay with IGROV-1, in the assay on HOP-92, in the assay on M19-MEL, with CCRF-CEM and in the assay with CAKI-1 was > 100 µM (inactive) each time. For the same compound, the GI50 in the assay with OVCAR-8, with ACHN, in the assay on HL-60, in the assay with M14, with SK-MEL-5 and in the assay on HT-29 was > 100 µM (inactive) in each case. The GI50 is > 100 µM (inactive) with COLO 205; > 100 µM (inactive) in the assay on OVCAR-5; > 100 µM (inactive) in the assay with NCI-H23; greater than 100 µM in the assay with HCT-15; > 100 µM (inactive) with UACC-257.

For `O=C1CCN(CCC(F)(F)C(F)(F)C(F)(F)C(F)(F)F)C(=S)N1`, the GI50 with SW-620, in the assay on IGROV-1, with M19-MEL, in the assay on CCRF-CEM, in the assay with OVCAR-8 and in the assay with ACHN was > 100 µM (inactive) each time. Besides, the GI50 with HL-60, in the assay with M14, in the assay with SK-MEL-5, in the assay on HT-29, with COLO 205 and in the assay on OVCAR-5 was > 100 µM (inactive) throughout. The figures for the GI50 with NCI-H23, in the assay with HCT-15 and in the assay with MOLT-4 were > 100 µM (inactive), greater than 100 µM and > 100 µM (inactive), respectively.

On to `COC(=O)c1cc(C)c(C)c2c1NC(=O)CNC2=O`, for which the GI50 in the assay with SW-620, in the assay on IGROV-1, in the assay with M19-MEL, in the assay on CCRF-CEM, in the assay on CAKI-1 and in the assay on OVCAR-8 was > 100 µM (inactive) throughout. The GI50 in the assay with ACHN, with HL-60, in the assay on M14, in the assay on HT-29, in the assay with COLO 205 and in the assay with NCI-H23 was > 100 µM (inactive) throughout. Moreover, the GI50 was greater than 100 µM with HCT-15, > 100 µM (inactive) with MOLT-4 and > 100 µM (inactive) with UACC-257.

`Cn1c2c(c3ccccc31)CCN(CCCN1CCN(c3cccc(Cl)c3)CC1)C2=O`: the GI50 in the assay on SW-620 was 28 µM (inactive); with IGROV-1, 26.4 µM (inactive); in the assay on HOP-92 it was 3.91 µM (inactive); with M19-MEL, 20.2 µM (inactive); in the assay on CCRF-CEM it was 31.5 µM (inactive); with CAKI-1 it was 20.8 µM (inactive). For the same compound, the GI50 in the assay on OVCAR-8 is 23.7 µM (inactive); with ACHN, 10.9 µM (inactive); with HL-60 it was 6.85 µM (inactive); with M14, 17.1 µM (inactive); in the assay on SK-MEL-5, 15.1 µM (inactive); in the assay with HT-29, 12.5 µM (inactive). Also, the GI50 was 15.1 µM (inactive) with COLO 205, 19.5 µM (inactive) in the assay with NCI-H23, 25.1 µM with HCT-15 and 11.6 µM (inactive) with MOLT-4.

Consider `COc1cc(C(=O)O)cc2c1[nH]c1ccccc12` [MUKOEIC ACID], for which the GI50 with SW-620, in the assay with IGROV-1, in the assay with HOP-92, with M19-MEL, with CCRF-CEM and in the assay with OVCAR-8 was > 25 µM (inactive) in each case. Further, the GI50 with ACHN, in the assay with HL-60, in the assay with M14, with SK-MEL-5, in the assay with HT-29 and in the assay with COLO 205 was > 25 µM (inactive) in each case. The GI50 is > 25 µM (inactive) in the assay with OVCAR-5, greater than 25 µM with HCT-15 and > 25 µM (inactive) in the assay with MOLT-4.

For `CC1OC(=O)N(CCCC=C2SCCCS2)C1=O` (stereo not drawn), the GI50 with SW-620, in the assay with IGROV-1, with HOP-92, in the assay on M19-MEL, in the assay with CCRF-CEM and in the assay on OVCAR-8 was > 100 µM (inactive) each time. Besides, the GI50 with ACHN, in the assay with M14, in the assay with HT-29, in the assay on COLO 205, in the assay on OVCAR-5 and in the assay on NCI-H23 was > 100 µM (inactive) each time. In addition, the GI50 in the assay with HCT-15 was greater than 100 µM; with MOLT-4 it was > 100 µM (inactive); in the assay with UACC-257 it was > 100 µM (inactive).
